In ChEMBL document CHEMBL1201862, “PubChem BioAssay data set” (2004):
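Cells were grown in 96-well plates and exposed to each compound for 48 hours at five concentrations; endpoints were interpolated linearly between bracketing concentrations, or set to the highest concentration if not reached. GI50 marks 50% less growth.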 Activity calls are given as the source filed them. No stated cut-off is given here; in the data, active = GI50 up to about 1.1 µM and inactive = higher.

Assays:
Test in all cases: NCI-60 cell line screen, 48 h
SK-MEL-28 = system: SK-MEL-28
NCI-H460 = system: NCI-H460
SF-295 = system: SF-295
HCT-116 = system: HCT-116
IGROV-1 = system: IGROV-1
KM12 = system: KM12
OVCAR-8 = system: OVCAR-8
EKVX = system: EKVX
SW-620 = system: SW-620
Malme-3M = system: Malme-3M
HOP-92 = system: HOP-92
UACC-257 = system: UACC-257
K562 = system: K562
Hs-578T = system: Hs-578T
MDA-MB-435 = system: MDA-MB-435
HCC 2998 = system: HCC 2998
SF-539 = system: SF-539
SK-OV-3 = system: SK-OV-3
CCRF-CEM = system: CCRF-CEM
MCF7 = system: MCF7

SMILES | GI50 (SK-MEL-28) | GI50 (NCI-H460) | GI50 (SF-295) | GI50 (HCT-116) | GI50 (IGROV-1) | GI50 (KM12) | GI50 (OVCAR-8) | GI50 (EKVX) | GI50 (SW-620) | GI50 (Malme-3M) | GI50 (HOP-92) | GI50 (UACC-257) | GI50 (K562) | GI50 (Hs-578T) | GI50 (MDA-MB-435) | GI50 (HCC 2998) | GI50 (SF-539) | GI50 (SK-OV-3) | GI50 (CCRF-CEM) | GI50 (MCF7)
O=C(O)CSc1nc2ccccc2[nH]1 | > 100 µM (inactive) | > 100 µM (inactive) | > 100 µM (inactive) | > 100 µM (inactive) | > 100 µM (inactive) | > 100 µM (inactive) | > 100 µM (inactive) | > 100 µM (inactive) | > 100 µM (inactive) | > 100 µM (inactive) | > 100 µM (inactive) | > 100 µM (inactive) | > 100 µM (inactive) | > 100 µM (inactive) | > 100 µM (inactive) | > 100 µM (inactive) |  |  |  | 
C/C(=N\NC(=S)N1CC2CCC(CC2)C1)c1cccc(C)n1 | 2.94 µM (inactive) | 0.248 µM (active) | 0.445 µM (active) | < 0.0445 µM (active) | 0.815 µM (active) | 0.422 µM (active) | 0.294 µM (active) | 0.488 µM (active) | 0.148 µM (active) | 2.11 µM (inactive) | 2.2 µM (inactive) | 0.142 µM (active) | < 0.0112 µM (active) | 4.11 µM (inactive) | 1.77 µM (inactive) | 2.16 µM (inactive) | 0.378 µM (active) | 0.809 µM (active) | 0.01 µM (active) | 
CC(=O)OCC1OC(n2c(-c3ccccc3)c(/N=N/c3ccc(C)cc3)c(C)c(C#N)c2=S)C(OC(C)=O)C(OC(C)=O)C1OC(C)=O (stereo unspecified) | 26.4 µM (inactive) | 10.8 µM (inactive) | 23.6 µM (inactive) | 3.26 µM (inactive) |  | 8.28 µM (inactive) |  |  | 2.31 µM (inactive) | > 10 µM (inactive) | 0.0257 µM (active) | 32.1 µM (inactive) | 5.69 µM (inactive) |  | 9.06 µM (inactive) | 22.7 µM (inactive) |  |  | 11 µM (inactive) | 6.47 µM (inactive)
NS(=O)(=O)c1ccc(NC(=O)c2cccc3c(=O)c4ccccc4[nH]c23)cc1 | 54.1 µM (inactive) | > 100 µM (inactive) | > 100 µM (inactive) | 32.4 µM (inactive) | 78.5 µM (inactive) | 22.2 µM (inactive) | > 100 µM (inactive) | > 100 µM (inactive) | 78.9 µM (inactive) | 24.7 µM (inactive) | > 100 µM (inactive) | > 100 µM (inactive) | 62.2 µM (inactive) |  |  | > 100 µM (inactive) | 22.7 µM (inactive) | 19.9 µM (inactive) | 5.85 µM (inactive) | 
CC1(Cl)C(=O)NC(=O)N([C@H]2C[C@H](O)[C@@H](CO)O2)C1N=[N+]=[N-] (stereo partly specified) | > 61.1 µM (inactive) | > 100 µM (inactive) | > 100 µM (inactive) | > 100 µM (inactive) | > 100 µM (inactive) | > 100 µM (inactive) | > 100 µM (inactive) | > 100 µM (inactive) | > 100 µM (inactive) | > 100 µM (inactive) | > 100 µM (inactive) | > 100 µM (inactive) | > 100 µM (inactive) |  |  | > 100 µM (inactive) | > 100 µM (inactive) | > 100 µM (inactive) | > 100 µM (inactive) | 
C=C1C(=O)C23C(O)C1CC[C@H]2C12CCCC(C)(COC(C)=O)[C@H]1[C@H](O)[C@]3(O)OC2 (stereo partly specified) | 1.14 µM (inactive) | 2.24 µM (inactive) | 0.891 µM (active) | 1.06 µM (active) | 2.08 µM (inactive) | 2.37 µM (inactive) | 1.7 µM (inactive) | 4.01 µM (inactive) | 0.519 µM (active) | 1.42 µM (inactive) | 1.39 µM (inactive) | 1.14 µM (inactive) | 0.128 µM (active) | 2.77 µM (inactive) |  | 1.85 µM (inactive) | 1.68 µM (inactive) | 4.63 µM (inactive) | 0.211 µM (active) | 1.78 µM (inactive)
C/C=C/c1c(O)c(=O)c2c(OC)cc(OC)c3c4c(OC)cc(OC)c5c(=O)c(O)c(/C=C/C)c(c1c23)c54 | 16.6 µM (inactive) | 9.48 µM (inactive) | 44.5 µM (inactive) | 4.84 µM (inactive) | 5.96 µM (inactive) | 10.9 µM (inactive) | 6.35 µM (inactive) | 16.6 µM (inactive) | 6.55 µM (inactive) | 6.25 µM (inactive) | 14.4 µM (inactive) | 16.5 µM (inactive) | 3.4 µM (inactive) |  | 5.82 µM (inactive) | 16.6 µM (inactive) | 3.61 µM (inactive) | 39.9 µM (inactive) | 5.46 µM (inactive) | 14.5 µM (inactive)
CC(C)N(C(=O)C12C3C4C5C3C1(C(=O)O)C5C42)C(C)C (stereo unspecified) | > 100 µM (inactive) | > 100 µM (inactive) | > 100 µM (inactive) | > 100 µM (inactive) | > 100 µM (inactive) | > 100 µM (inactive) | > 100 µM (inactive) | > 100 µM (inactive) | > 100 µM (inactive) | > 100 µM (inactive) | > 100 µM (inactive) | > 100 µM (inactive) | > 100 µM (inactive) |  |  | > 100 µM (inactive) | > 100 µM (inactive) | > 100 µM (inactive) | > 100 µM (inactive) | 
O=C(/C(=C/c1ccccc1)c1ccccc1)N1c2ccccc2CC1c1c[nH]c2ccccc12 (stereo unspecified) | > 100 µM (inactive) | 7.48 µM (inactive) | 7.62 µM (inactive) | 5.51 µM (inactive) | > 100 µM (inactive) | 10.2 µM (inactive) | > 100 µM (inactive) | 25.2 µM (inactive) | 59.2 µM (inactive) | 28.5 µM (inactive) | 81.1 µM (inactive) | 54.5 µM (inactive) | 5.05 µM (inactive) |  |  | > 100 µM (inactive) | > 100 µM (inactive) | > 100 µM (inactive) | 8.91 µM (inactive) | 
CC(C)[C@@H]1C=C(c2ccccc2)c2ccccc2C1C(C#N)(C#N)C(C)C (stereo partly specified) | > 100 µM (inactive) | > 100 µM (inactive) | > 100 µM (inactive) | 32.9 µM (inactive) | > 100 µM (inactive) | > 100 µM (inactive) | > 100 µM (inactive) | > 100 µM (inactive) | > 100 µM (inactive) | > 100 µM (inactive) | > 100 µM (inactive) | 54.5 µM (inactive) | 38.2 µM (inactive) |  |  | 90.4 µM (inactive) | > 100 µM (inactive) | > 100 µM (inactive) | > 100 µM (inactive) | 
Cc1ccc(S(=O)(=O)N/N=C\c2c3ccccc3[n+](C)c3ccccc23)cc1 | 31.5 µM (inactive) | 19.8 µM (inactive) | 13.8 µM (inactive) | 30.5 µM (inactive) | 29.6 µM (inactive) | 34.6 µM (inactive) | 38.5 µM (inactive) | 54.6 µM (inactive) | 33.8 µM (inactive) | 32.4 µM (inactive) | 17.1 µM (inactive) | 30.8 µM (inactive) | 15.6 µM (inactive) |  |  | 92.7 µM (inactive) | 22.4 µM (inactive) | > 100 µM (inactive) | 15.3 µM (inactive) | 
CC(C)NC(=O)N(Nc1ccccc1)C(C)(C)C | > 100 µM (inactive) | > 100 µM (inactive) | > 100 µM (inactive) | > 100 µM (inactive) | > 100 µM (inactive) | > 100 µM (inactive) | > 100 µM (inactive) | > 100 µM (inactive) | > 100 µM (inactive) | > 100 µM (inactive) | > 100 µM (inactive) | > 100 µM (inactive) | > 100 µM (inactive) | > 100 µM (inactive) |  | > 100 µM (inactive) | > 100 µM (inactive) | > 100 µM (inactive) | > 100 µM (inactive) | > 100 µM (inactive)
FC(F)(F)c1nc2ccc3[nH]c4c(-c5ccccc5)nccc4c3c2[nH]1 | > 100 µM (inactive) | > 80 µM (inactive) | > 100 µM (inactive) | > 74.5 µM (inactive) | > 100 µM (inactive) | > 100 µM (inactive) | > 100 µM (inactive) | > 100 µM (inactive) | > 100 µM (inactive) | > 100 µM (inactive) | > 100 µM (inactive) | > 100 µM (inactive) | > 56.9 µM (inactive) |  |  | > 100 µM (inactive) | > 100 µM (inactive) | > 100 µM (inactive) | > 45.7 µM (inactive) | 
COC(=O)C1=C(OC(=O)/C=C/c2ccc(Cl)cc2)C(C(=O)OC)[C@]2(O)[C@@H](C(=O)OC)[C@H]1C[C@@H](c1ccccc1)[C@@H]2C(=O)OC (stereo partly specified) | 17.3 µM (inactive) | 4.15 µM (inactive) | 9.23 µM (inactive) | 3.53 µM (inactive) | 3.18 µM (inactive) | 4.89 µM (inactive) | 3.95 µM (inactive) | 3.85 µM (inactive) | 3.97 µM (inactive) | 4.94 µM (inactive) | 2.58 µM (inactive) | 26.2 µM (inactive) | 4.54 µM (inactive) | 7.71 µM (inactive) | 3.82 µM (inactive) | 7.83 µM (inactive) | 4.68 µM (inactive) | 29.9 µM (inactive) | 3.31 µM (inactive) | 
O=C(O/N=C1/CCCC/C1=C\c1ccccc1)c1ccc(Cl)cc1 | > 100 µM (inactive) | > 100 µM (inactive) | 47.4 µM (inactive) | > 100 µM (inactive) | > 100 µM (inactive) | > 100 µM (inactive) | > 100 µM (inactive) | 42.1 µM (inactive) | > 100 µM (inactive) | > 100 µM (inactive) | 40.9 µM (inactive) | > 100 µM (inactive) | > 100 µM (inactive) |  |  | 0.0177 µM (active) | > 100 µM (inactive) | > 100 µM (inactive) | > 100 µM (inactive) | 
